In PMC3975393, “Structure of N-Terminal Sequence Asp-Ala-Glu-Phe-Arg-His-Asp-Ser of Aβ-Peptide with Phospholipase A2 from Venom of Andaman Cobra Sub-Species Naja naja sagittifera at 2.0 Å Resolution” (International Journal of Molecular Sciences, 2014):

System: PLA2
Test: X-ray co-crystal structure of the complex with PLA2 (PDB 3JQ5)
Type: binding, Naja naja sagittifera
Conditions: 2.0 Å resolution, peptide at 10-fold high molar concentration, 10 mM sodium phosphate pH 6.0, 1 mM CaCl2, 3 h incubation
Protocol: The lyophilized samples of crude cobra venom of Naja naja sagittifera were obtained from Irula Snake Catchers Industrial Cooperative Society, Chennai, India. The crude venom was dissolved in 50 mM Tris-HCl, 100 mM NaCl, pH 7.0 at 100 mg/mL concentration and centrifuged at 12,000× g for 10 min to remove insoluble material. The collected supernatant was size fractionated on Sephadex G-100 column (100 × 2 cm) pre-equilibrated with 50 mM Tris-HCl, 100 mM NaCl, pH 7.0. The column was eluted with the same buffer at a flow rate of 6 mL/h. The peak corresponding to molecular weight of 14 kDa on SDS-PAGE and showing PLA2 activity was pooled for further purification. The pooled fractions were desalted and dialysed against 50 mM Tris-HCl, pH 7.0 and loaded on CM Sephadex C-50 column (Pharmacia, Uppsala, Sweden). The column was washed with the above buffer. The unbound fractions were pooled and dialysed against ammonium acetate buffer, pH 6.0. […] The N-terminal sequence of the first 15 residues was determined. […]
The crystal structure was determined with molecular replacement method using auto-AMoRe from the CCP4 software suit (Collaborative Computational Project, Number 4, 1994). […] The rotation and translation functions calculated with data in the resolution range, 12.0–3.5 Å yielded a unique solution with the first peak being very distinct. […]

Substance: Asp-Ala-Glu-Phe-Arg-His-Asp-Ser [DAEFRHDS]
- binding in the substrate binding site / hydrophobic channel of PLA2: strongly interacted with the non-polar binding-cavity residues of PLA2
- binding in the substrate binding site / hydrophobic channel of PLA2 (listed as octa-peptide): fitted well in the substrate binding site of enzyme
